Like-named read-outs stand apart in the source and are kept apart here.
Columns and labels:
5-HT uptake = target: T1, 5-HT uptake (Rattus norvegicus, UniProt P31652); assay: Inhibition of 5-HT uptake in rat brain synaptosomes; type: biochemical; details: rat synaptosomes (medulla and pons), [3H]-5-HT
T1 construct: from tissue; host or cells: rat brain synaptosomes (P2 fraction) from marrow (medulla) and pons

NA transporter = target: T2, NA transporter (Rattus norvegicus, UniProt Q63380); assay: Inhibition of noradrenaline uptake in rat brain synaptosomes; type: biochemical; details: for inhibition at 10 µM: read-out: % Inhibition of NA uptake [10 μM]
T2 construct: from tissue; host or cells: rat brain synaptosomes (P2 fraction) from hypothalamus
Protocol: II. […] For in vitro studies, synaptosomes of rat brain areas are freshly isolated, as described in the article “The isolation of nerve endings from brain” by E. G. Gray and […]. Anatomy 96, pages 79-88, 1962. The relevant literature reference is enclosed herein by reference and is to be regarded as part of the disclosure. […] The homogenate is centrifuged at 4° C. for 10 minutes at 1000 g. […] The respective uptake was measured in a 96 well microtiter plate. The volume was 250 μL and the incubation was carried out at room temperature (ca 20-25° C.) under a blanket of oxygen. […] The 96 samples through were then filtered through a Unifilter GF/B® microtiter plate (Packard) and washed with 200 mL of incubated buffer with the aid of a “Brabdel Cell-Harvester MPXRI 96T”. The Unifilter GF/B plate was dried at 55° C. over a period of 1 h. The plate was then sealed with a back seal® (Packard) and there were then added 35 μL of scintillant fluid per well (Ultima Gold, Packard). Following sealing with a top seal® (Packard) and following adjustment of the equilibrium (approximately over a period of 5 h), the radioactivity is determined in a 1450 Microbeta® (Wallac). […] The amount of protein used in the above determination corresponded to the values known from the literature, such as is described in “Protein measurement with the folin phenol reagent”, Lowry et al., J. Biol. Chem., 193, 265-275, 1951. A detailed description of the method is disclosed in the literature, for example, in […], and B. […] The relevant literature references are incorporated herein by reference and are to be regarded as part of the disclosure.

[1] = tested on: phenylquinone-induced writhing reactions in mice; assay: Analgesic test using the phenylquinone-induced writhing test on mice; type: in vivo, mouse; details: male NMRI mice, phenylquinone i.p.
Protocol: I. Analgesic Test Using the Writhing Test on Mice
The analysis of analgesic activity is carried out using the phenylquinone-induced writhing assay in mice, modified as described in the article by I. C. Hendershot and J. Forsaith ((1959) in J. Pharmacol. Exp. Ther. 125, 237-240. The relevant description is incorporated herein by reference and is to be regarded as part of the present disclosure.
For the present purpose, male NMRI mice are used having a weight of from 25 to 30 g. Groups of 10 animals per substance dose receive, 10 minutes after an intravenous dose of test substances, an intraperitoneal administration of 0.3 ml/mouse of a 0.02% strength aqueous solution of phenylquinone (phenylbenzoquinone, obtainable from Sigma, Deisenhofen; solution produced with the addition of 5% of ethanol and storage in a water bath at 45° C.). The animals are placed individually in observation cages. Using a pushbutton counter, the number of pain-induced stretching movements (so-called writhing reactions=straightening of the body accompanied by stretching of the rear extremities) was counted over a period of from 5 to 20 minutes following the administration of phenylquinone. The control is provided by animals receiving only physiological saline. All substances are tested using the standard dosage of 10 mg/kg. […]

[2] = 10 μM, rat synaptosomes (hypothalamus), [3H]-NA

T1 sequence (P31652 whole entry): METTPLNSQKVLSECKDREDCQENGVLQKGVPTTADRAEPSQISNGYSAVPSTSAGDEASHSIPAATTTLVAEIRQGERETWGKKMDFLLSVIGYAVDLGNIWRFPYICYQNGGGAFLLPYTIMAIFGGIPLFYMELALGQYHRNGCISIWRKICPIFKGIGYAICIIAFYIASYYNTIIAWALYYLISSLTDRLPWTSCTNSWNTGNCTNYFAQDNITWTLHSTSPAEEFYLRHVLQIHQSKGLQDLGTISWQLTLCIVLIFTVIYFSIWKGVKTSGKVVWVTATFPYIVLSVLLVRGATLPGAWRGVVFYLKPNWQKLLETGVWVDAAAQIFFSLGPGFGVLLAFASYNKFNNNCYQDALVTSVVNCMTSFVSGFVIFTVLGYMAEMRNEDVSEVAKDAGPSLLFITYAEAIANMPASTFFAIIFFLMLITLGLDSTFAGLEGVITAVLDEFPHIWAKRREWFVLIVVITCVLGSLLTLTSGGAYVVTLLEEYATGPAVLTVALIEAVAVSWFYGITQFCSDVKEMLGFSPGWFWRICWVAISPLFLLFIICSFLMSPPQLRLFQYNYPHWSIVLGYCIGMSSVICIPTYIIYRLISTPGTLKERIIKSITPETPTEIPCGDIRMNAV
T2 sequence (Q63380 1-617): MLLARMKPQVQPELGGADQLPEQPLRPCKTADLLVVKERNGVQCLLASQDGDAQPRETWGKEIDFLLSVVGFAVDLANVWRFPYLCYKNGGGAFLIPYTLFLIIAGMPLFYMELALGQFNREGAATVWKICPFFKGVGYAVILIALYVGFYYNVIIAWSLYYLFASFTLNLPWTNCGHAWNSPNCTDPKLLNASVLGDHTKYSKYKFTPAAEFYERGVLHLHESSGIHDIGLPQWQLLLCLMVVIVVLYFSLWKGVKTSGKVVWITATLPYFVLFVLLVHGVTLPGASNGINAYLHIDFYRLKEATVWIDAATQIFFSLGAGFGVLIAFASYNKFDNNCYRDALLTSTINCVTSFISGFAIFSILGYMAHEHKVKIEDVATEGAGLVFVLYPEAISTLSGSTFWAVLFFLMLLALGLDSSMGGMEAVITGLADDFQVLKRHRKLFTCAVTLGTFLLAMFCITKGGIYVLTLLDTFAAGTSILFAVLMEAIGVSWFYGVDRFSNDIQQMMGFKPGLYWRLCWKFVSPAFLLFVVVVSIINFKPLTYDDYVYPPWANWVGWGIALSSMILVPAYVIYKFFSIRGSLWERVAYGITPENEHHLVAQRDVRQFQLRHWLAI

O=C(COc1ccc(F)cc1)Nc1nc2c(s1)CCCC2C(=O)N1CCN(c2ccccc2)CC1 (stereo not shown) [Example 21, 2-(4-Fluorophenoxy)-N-[4-(4-phenylpiperazin-1-carbonyl)-4,5,6,7-tetrahydrobenzthiazol-2-yl]acetamide]
inhibition at 10 µM (5-HT uptake): 47%
inhibition at 10 µM (NA transporter; [2]): 55%

COc1cccc(N2CCN(C(=O)C3CCCc4sc(NC(=O)c5ccccc5)nc43)CC2)c1 (stereo not shown) [Example 28, N-{4-[4-(3-Methoxyphenyl)piperazin-1-carbonyl]-4,5,6,7-tetrahydrobenzthiazol-2-yl}benzamide]
inhibition at 10 µM (5-HT uptake): 48%
inhibition at 10 µM (NA transporter; [2]): 60%

CCCC(=O)Nc1nc2c(s1)CCCC2C(=O)NCC1CCN(Cc2ccc(-c3ccccc3)cc2)C1 (stereo not shown) [Example 29, 2-Butyrylamino-4,5,6,7-tetrahydrobenzthiazol-4-carboxylic acid (1-biphenyl-4-ylmethylpyrrolidin-3-yl)methylamide]
inhibition at 10 µM (5-HT uptake): 55%
inhibition at 10 µM (NA transporter; [2]): 73%

COc1cc(Br)c(CN2CCC(NC(=O)C3CCCc4sc(NC(=O)C(C)c5ccccc5)nc43)C2)cc1OC (stereo not shown) [Example 33]
% Inhibition of 5-HT uptake [10 μM] (5-HT uptake): 63%
% Inhibition of NA uptake [10 μM] (NA transporter; [2]): 79%

CC=CC=CC(=O)Nc1nc2c(s1)CCCC2C(=O)NCC1CCN(Cc2c(F)cccc2Cl)C1 (stereo not shown) [Example 61, 2-Hexa-2,4-dienoylamino-4,5,6,7-tetrahydrobenzthiazol-4-carboxylic acid[1-(2-chloro-6-fluorobenzyl)pyrrolidin-3-yl]methylamide]
% Inhibition of 5-HT uptake [10 μM] (5-HT uptake): 46%
% Inhibition of NA uptake [10 μM] (NA transporter; [2]): 45%

O=C(CCc1ccccc1)Nc1nc2c(s1)CCCC2C(=O)NCC1CCN(Cc2ccc(-c3ccccc3)cc2)C1 (stereo not shown) [Example 55, 2-(3-Phenylpropionylamino)-4,5,6,7-tetrahydrobenzthiazol-4-carboxylic acid (1-biphenyl-4-ylmethylpyrrolidin-3-yl)methylamide]
inhibition at 10 µM (5-HT uptake): 54%
inhibition at 10 µM (NA transporter; [2]): 44%

CCCC(=O)Nc1nc2c(s1)CCCC2C(=O)N1CCN(Cc2cc3ccccc3o2)CC1 (stereo not shown) [Example 27, N-[4-(4-Benzofuran-2-ylmethylpiperazin-1-carbonyl)-4,5,6,7-tetrahydrobenzthiazol-2-yl]butyramide]
inhibition at 10 µM (5-HT uptake): 61%
inhibition at 10 µM (NA transporter; [2]): 47%

CCCCCC(=O)Nc1nc2c(s1)CCCC2C(=O)N1CCN(Cc2c(OC)cc(OC)cc2OC)CC1 (stereo not shown) [Example 34, Hexanoic acid{4-[4-(2,4,6-trimethoxybenzyl)piperazin-1-carbonyl]-4,5,6,7-tetrahydrobenzthiazol-2-yl}amide]
% Inhibition of 5-HT uptake [10 μM] (5-HT uptake): 63%
% Inhibition of NA uptake [10 μM] (NA transporter; [2]): 50%

O=C(Nc1nc2c(s1)CCCC2C(=O)N1CCN(c2ccccc2)CC1)c1ccco1 (stereo not shown) [Example 89, Furan-2-carboxylic acid[4-(4-phenylpiperazin-1-carbonyl)-4,5,6,7-tetrahydrobenzthiazol-2-yl]amide]
% Inhibition of writhing reactions at 10 mg/kg intravenous [1]: 41%
inhibition at 10 µM (NA transporter): 77%

CC=CC=CC(=O)Nc1nc2c(s1)CCCC2C(=O)NCC1CCN(Cc2c(Cl)cccc2Cl)C1 (stereo not shown) [Example 49, 2-Hexa-2,4-dienoylamino-4,5,6,7-tetrahydrobenzthiazol-4-carboxylic acid[1-(2,6-dichlorobenzyl)pyrrolidin-3-yl]methylamide]
% Inhibition of 5-HT uptake [10 μM] (5-HT uptake): 51%
% Inhibition of NA uptake [10 μM] (NA transporter; [2]): 44%

O=C(CCc1ccccc1)Nc1nc2c(s1)CCCC2C(=O)NCC1CCN(Cc2cc3ccccc3o2)C1 (stereo not shown) [Example 48, 2-(3-Phenylpropionylamino)-4,5,6,7-tetrahydrobenzthiazol-4-carboxylic acid (1-benzofuran-2-ylmethylpyrrolidin-3-yl)methylamide]
inhibition at 10 µM (5-HT uptake): 51%
inhibition at 10 µM (NA transporter; [2]): 67%

O=C(Nc1nc2c(s1)CCCC2C(=O)N1CCN(CCc2ccccc2)CC1)c1ccoc1 (stereo not shown) [Example 71, Furan-3-carboxylic acid[4-(4-phenethylpiperazin-1-carbonyl)-4,5,6,7-tetrahydrobenzthiazol-2-yl]amide]
% Inhibition of 5-HT uptake [10 μM] (5-HT uptake): 66%
% Inhibition of NA uptake [10 μM] (NA transporter; [2]): 90%

CCOc1ccccc1C(=O)Nc1nc2c(s1)CCCC2C(=O)N1CCN(C(C)c2ccccc2)CC1 (stereo not shown) [Example 75, 2-Ethoxy-N-{4-[4-(1-phenylethyl)piperazin-1-carbonyl]-4,5,6,7-tetrahydrobenzthiazol-2-yl}benzamide]
inhibition at 10 µM (5-HT uptake): 59%
inhibition at 10 µM (NA transporter; [2]): 51%

O=C(Cc1cccs1)Nc1nc2c(s1)CCCC2C(=O)NCCN1CCCCCC1 (stereo not shown) [Example 39, 2-(2-Thiophen-2-ylacetylamino)-4,5,6,7-tetrahydrobenzthiazol-4-carboxylic acid(2-azepan-1-ylethyl)amide]
% Inhibition of 5-HT uptake [10 μM] (5-HT uptake): 49%
% Inhibition of NA uptake [10 μM] (NA transporter; [2]): 50%

COc1cc(OC)c(CN2CCC(NC(=O)C3CCCc4sc(NC(=O)c5ccco5)nc43)C2)c(OC)c1 (stereo not shown) [Example 9, 2-[(Furan-2-carbonyl)amino]-4,5,6,7-tetrahydrobenzthiazol-4-carboxylic acid [1-(-2,4,6-trimethoxybenzyl)pyrrolidin-3-yl]amide]
inhibition at 10 µM (5-HT uptake): 53%
inhibition at 10 µM (NA transporter; [2]): 98%

CC(C(=O)Nc1nc2c(s1)CCCC2C(=O)NCCCN(C)C)c1ccccc1 (stereo not shown) [Example 3, 2-(2-Phenylpropionylamino)-4,5,6,7-tetrahydrobenzthiazol-4-carboxylic acid (3-dimethylaminopropyl)amide]
inhibition at 10 µM (5-HT uptake): 61%
inhibition at 10 µM (NA transporter; [2]): 65%

O=C(Nc1nc2c(s1)CCCC2C(=O)N1CCN(Cc2cc3ccccc3o2)CC1)c1ccoc1 (stereo not shown) [Example 17, Furan-3-carboxylic acid[4-(4-benzofuran-2-ylmethylpiperazin-1-carbonyl)-4,5,6,7-tetrahydrobenzthiazol-2-yl]amide]
% Inhibition of 5-HT uptake [10 μM] (5-HT uptake): 72%
% Inhibition of NA uptake [10 μM] (NA transporter; [2]): 81%

COc1ccc(N2CCN(C(=O)C3CCCc4sc(NC(=O)c5ccccc5)nc43)CC2C)cc1 (stereo not shown) [Example 7, N-{4-[4-(4-Methoxyphenyl)-3-methylpiperazin-1-carbonyl]-4,5,6,7-tetrahydrobenzthiazol-2-yl]-benzamide]
inhibition at 10 µM (5-HT uptake): 51%
inhibition at 10 µM (NA transporter; [2]): 48%

CC(C)(C)CC(=O)Nc1nc2c(s1)CCCC2C(=O)N1CCN(Cc2ccccc2)CC1 (stereo not shown) [Example 82, N-[4-(4-Benzylpiperazin-1-carbonyl)-4,5,6,7-tetrahydrobenzthiazol-2-yl]-3,3-dimethylbutyramide]
inhibition at 10 µM (5-HT uptake): 41%
inhibition at 10 µM (NA transporter; [2]): 64%

O=C(CC1CCCCC1)Nc1nc2c(s1)CCCC2C(=O)NCC1CCN(Cc2c(F)cccc2Cl)C1 (stereo not shown) [Example 78, 2-(2-Cyclohexylacetylamino)-4,5,6,7-tetrahydrobenzthiazol-4-carboxylic acid [1-(2-chloro-6-fluorobenzyl)pyrrolidin-3-yl]methylamide]
inhibition at 10 µM (5-HT uptake): 54%
inhibition at 10 µM (NA transporter; [2]): 41%
